Results on 20 compounds are retold here after patent US12071411B2, “Inhibitors of HIF-2α and methods of use thereof” (ARCUS BIOSCIENCES, INC., priority 2021, dated 2024).

SMILES strings stand for the structures. Like-named read-outs stand apart in the source and are kept apart here. Bounds are passed on as bounds.

Assay [1] deals with T1, HIF-2α (Homo sapiens, UniProt Q99814). Nature of the assay: HIF-2α Luciferase Reporter Assay (serum), HRE-luciferase 786-0 cells in 100% human serum. The format is cell-based. As to conditions: for IC50: 100% human serum, 786-0 reporter cells, overnight incubation, read-out: Serum Potency. On the procedure:
(§1) Generation of HIF-2α Luciferase 786-0 Cell Line:
(§2) Stable cell lines were generated by transducing 786-0 cells (ATCC, CRL-1932) with Cignal Lenti HIF Luc Reporter lentivirus (CLS-007L, Qiagen) according to the manufacturer's guidelines. In brief, 0.3×10^6 786-0 cells were transduced with lentivirus at a multiplicity of infection (MOI) of 25 for 24 hours. After transduction, cells were replenished with fresh RPMI 1640 Medium (Cat. No. 11875085, Thermo Fisher) supplemented with 10% FBS (Cat. No. A3160502, Gibco), 2 mM GlutaMAX™ (Cat. No. 35050-061, Invitrogen) and 100 units of penicillin and 100 μg of streptomycin/mL (Cat. No 15070063, Thermo Fisher) for another 24 hours. Antibiotic selection was performed in cell media containing 4 μg/mL of puromycin. After 7 days of antibiotic selection, stable pools of surviving cells were expanded and used in a luciferase reporter assay.
HIF-2α Luciferase Reporter Assay (Serum):
An HRE-luciferase stable reporter 786-0 cell line was maintained in active culture using RPMI 1640 (GIBCO) media supplemented with 1% penicillin-streptomycin, 1% GlutaMAX™, 10% FBS-One Shot (GIBCO) and 4 ug/ml of puromycin (Invitrogen). On the day of the assay, cells were harvested using StemPro™ Accutase™ cell dissociation reagent (GIBCO) and resuspended at 1.5 million cells per milliliter in Opti-MEM™ (GIBCO). 20 ul/well of the resuspended cells were dispensed into a 384 white tissue culture-treated microplate (Corning) and allowed to incubate at 37° C., 5% CO2 for 3 hours. Compounds were prepared by dispensing 0.8 ul of compound in 100% DMSO into a Greiner plate containing 40 ul/well of 100% human serum (Bioreclamation IVT). After 3 hours, media was removed via centrifugation at 500 RPM for 30 seconds and 30 ul/well of compound diluted in human serum was added. The plate was incubated overnight at 37° C., 5% CO2. The following day, ONE-Glo™ was prepared per vendors instructions. The cell plate was removed from the incubator and the human serum was removed from the plate using centrifugation at 500 RPM for 30 seconds. Following the removal of human serum, 40 ul/well of room temperature Opti-MEM™ was added to the plate and allowed to equilibrate to room temperature for 2 hours. 40 ul/well of ONE-Glo™ reagent was added and allowed to incubate for 10 minutes before reading the luminescence signal on the Envision (PerkinElmer). Data was analyzed using 4-parameter logistic equation to generate IC50.
(A reporter such as luciferase makes a cellular process visible.)

The target in assay [2] is T1, HIF-2α. Briefly: HIF-2α Luciferase Reporter Assay (serum free) in HIF-Luc-786-0 cells. The format is cell-based. The settings on record: Opti-MEM, 786-0 reporter cells, 20 hours incubation. On the procedure: as §1, §2
HIF-2α Luciferase Reporter Assay (Serum Free):
On day one, 20 uL of HIF-Luc-786-0 cells in Opti-MEM™ (Cat. No. 31985088, Thermo Fisher) were seeded into each well of a 384 well white opaque plate (Corning 3570) and incubated at 37° C. and 5% CO2. Twenty microliters of 2× test compounds in Opti-MEM™ were added to cells after 4 hours of incubation. Final assay conditions comprised 20,000 cells per well in 1% DMSO with test compound concentrations ranging from 50 uM to 0 uM. After 20 hours incubation at 37° C. and 5% CO2, luciferase activity was determined using ONE-Glo™ Luciferase Assay Reagent (E6110, Promega) following the manufacture's recommended procedure. Briefly, 40 uL of ONE-Glo™ luciferase reagents were added to each well and luciferase signals were measured using an Envision 2102 Multilabel Reader. Percentage maximum activity in each test well was calculated based on DMSO (maximum activity) and no cell control wells (baseline activity). The IC50 values of the test compounds were determined from compound dose response curves fitted using a standard four parameter fit equation.

Where [3] appears, read: ratio of IC50 in 100% serum to IC50 in serum free conditions, approximate.

T1 sequence (Q99814 whole entry): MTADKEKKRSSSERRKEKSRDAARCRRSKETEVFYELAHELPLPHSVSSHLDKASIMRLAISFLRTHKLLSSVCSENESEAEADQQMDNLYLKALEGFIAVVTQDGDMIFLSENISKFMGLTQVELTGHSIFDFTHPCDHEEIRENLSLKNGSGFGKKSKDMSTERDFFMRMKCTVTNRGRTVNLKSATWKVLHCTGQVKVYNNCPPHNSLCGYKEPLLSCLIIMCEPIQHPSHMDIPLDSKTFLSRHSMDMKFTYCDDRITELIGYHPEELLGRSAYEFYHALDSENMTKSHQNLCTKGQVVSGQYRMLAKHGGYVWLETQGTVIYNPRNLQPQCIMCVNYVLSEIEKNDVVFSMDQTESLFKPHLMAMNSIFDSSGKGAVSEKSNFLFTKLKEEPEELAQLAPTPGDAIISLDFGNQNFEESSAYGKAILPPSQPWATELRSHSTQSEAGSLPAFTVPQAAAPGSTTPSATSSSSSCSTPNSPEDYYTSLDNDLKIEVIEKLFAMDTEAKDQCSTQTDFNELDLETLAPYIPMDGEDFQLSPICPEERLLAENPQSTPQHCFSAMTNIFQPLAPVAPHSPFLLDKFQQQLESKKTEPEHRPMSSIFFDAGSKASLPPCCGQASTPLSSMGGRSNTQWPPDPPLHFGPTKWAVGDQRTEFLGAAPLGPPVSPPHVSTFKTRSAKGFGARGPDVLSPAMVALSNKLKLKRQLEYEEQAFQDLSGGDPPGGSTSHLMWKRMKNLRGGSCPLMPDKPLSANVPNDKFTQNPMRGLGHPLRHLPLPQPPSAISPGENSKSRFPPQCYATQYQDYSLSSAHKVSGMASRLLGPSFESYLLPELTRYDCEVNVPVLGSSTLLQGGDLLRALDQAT

Turning to `O[C@H]1c2c(C(F)(F)F)nn([C@@H]3CCC[C@H](OC(F)F)C3)c2CC1(F)F` (racemic) [Example 112, (4S)-1-[(1R,3S)-3-(difluoromethoxy)cyclohexyl]-5,5-difluoro-3-(trifluoromethyl)-1H,4H,5H,6H-cyclopenta[c]pyrazol-4-ol and (4S)-1-[(1S,3R)-3-(difluoromethoxy)cyclohexyl]-5,5-difluoro-3-(trifluoromethyl)-1H,4H,5H,6H-cyclopenta[c]pyrazol-4-ol], the IC50 was above 1000 nM in assay [1] and below 100 nM in assay [2]. For the same compound, in assay [1] (setting [3]), the “Serum Shift (approximate)” value is on record as 17.
For `O[C@H]1c2c(C(F)(F)F)nn([C@@H]3CCC(F)(F)[C@@H](F)C3)c2CC1(F)F` [Example 121, (4S)-5,5-difluoro-1-[(1R,3S)-3,4,4-trifluorocyclohexyl]-3-(trifluoromethyl)-4,6-dihydrocyclopenta[c]pyrazol-4-ol] the same measures were above 1000 nM, below 100 nM and 11.
Take `O[C@H]1c2c(C(F)(F)F)nn(C3CCO[C@H](C(F)(F)F)C3)c2CC1(F)F` (single isomer, unassigned) [94/95 DIAST-2]: the IC50 in assay [1] was above 1000 nM; in assay [2], below 100 nM. Also, the “Serum Shift (approximate)” value in assay [1] (setting [3]) turned out to be 23.
`O[C@H]1c2c(C(F)(F)F)nn(C3CC4(C3)CC(F)(F)C4)c2[C@@H](F)[C@@H]1F` (single isomer, unassigned) [Example 134]: the results for the IC50 in assay [1] and in assay [2] were above 1000 nM and below 100 nM, respectively. In assay [1] (setting [3]), the “Serum Shift (approximate)” value was 13.
For `O[C@H]1c2c(C(F)(F)F)nn(C3CCC[C@H](OC(F)F)C3)c2CC1(F)F` (mixture of isomers) [Example 108, (4S)-1-[(1S,3S)-3-(difluoromethoxy)cyclohexyl]-5,5-difluoro-3-(trifluoromethyl)-1H,4H,5H,6H-cyclopenta[c]pyrazol-4-ol and (4S)-1-[(1R,3R)-3-(difluoromethoxy)cyclohexyl]-5,5-difluoro-3-(trifluoromethyl)-1H,4H,5H,6H-cyclopenta[c]pyrazol-4-ol] the same measures were above 1000 nM, below 100 nM and 19.
The like results for `O[C@H]1c2c(C(F)(F)F)nn(-c3ccc(Cl)c(F)c3)c2CC1(F)F` [Example 119, (4S)-1-(4-chloro-3-fluorophenyl)-5,5-difluoro-3-(trifluoromethyl)-4,6-dihydrocyclopenta[c]pyrazol-4-ol] were, in that order, above 1000 nM, below 100 nM and 73.
The like results for `[O-][S+](CCn1nc(C(F)(F)F)c2c1CCC(F)(F)[C@H]2O)C(F)F` (stereo partly drawn) [Example 128, (4S)-1-[2-(difluoromethylsulfinyl)ethyl]-5,5-difluoro-3-(trifluoromethyl)-6,7-dihydro-4H-indazol-4-ol] were, in that order, above 1000 nM, 100 to 1000 nM and 4.
In the case of `O[C@H]1c2c(C(F)(F)F)nn(CCCC(F)(F)F)c2[C@@H](F)C1(F)F` (single isomer, unassigned) [Example 123], the IC50 in assay [1] was above 1000 nM; in assay [2], 100 to 1000 nM. Also, the “Serum Shift (approximate)” value in assay [1] (setting [3]) amounted to 12.
For `O=S1(=O)CC(Cn2nc(C(F)(F)F)c3c2[C@H](F)C(F)(F)[C@H]3O)C1` (single isomer, unassigned) [144/145 DIAST-1] the same measures were above 1000 nM, 100 to 1000 nM and 3.
For `O[C@H]1c2c(C(F)(F)F)nn([C@@H]3C[C@@H](F)[C@@H](F)[C@@H](F)C3)c2CC1(F)F` [Example 70, (4S)-5,5-difluoro-1-[(3R,5S)-3,4,5-trifluorocyclohexyl]-3-(trifluoromethyl)-4,6-dihydrocyclopenta[c]pyrazol-4-ol] the same measures were 100 to 1000 nM, 100 to 1000 nM and 0.
The like results for `O[C@H]1c2c(C(F)(F)F)nn(CC3CC3C(F)(F)F)c2CCC1(F)F` (stereo partly drawn) [Example 59, (4S)-5,5-difluoro-3-(trifluoromethyl)-1-[[2-(trifluoromethyl)cyclopropyl]methyl]-6,7-dihydro-4H-indazol-4-ol] were, in that order, above 1000 nM, 100 to 1000 nM and 7.
In the case of `O[C@H]1c2c(C(F)(F)F)nn(CCC3CC3(F)F)c2[C@@H](F)[C@H]1F` (stereo partly drawn) [Example 152, (4S,5S,6R)-1-[2-(2,2-difluorocyclopropyl)ethyl]-5,6-difluoro-3-(trifluoromethyl)-5,6-dihydro-4H-cyclopenta[c]pyrazol-4-ol], the IC50 in assay [1] and in assay [2] was 100 to 1000 nM throughout. Moreover, in assay [1] (setting [3]), the “Serum Shift (approximate)” value worked out at 3.
Regarding `COC(C)CCn1nc(C(F)(F)F)c2c1CCC(F)(F)[C@H]2O` (stereo partly drawn) [Example 13, (4S)-5,5-difluoro-1-(3-methoxybutyl)-3-(trifluoromethyl)-6,7-dihydro-4H-indazol-4-ol], the IC50 in assay [1] and in assay [2] was 100 to 1000 nM in each case. In addition, the “Serum Shift (approximate)” value in assay [1] (setting [3]) is recorded as 2.
For the compound `O[C@H]1c2c(C(F)(F)F)nn([C@@H]3CC[C@@H](F)[C@@H](F)C3)c2[C@@H](F)[C@H]1F` (single isomer, unassigned) [141/142 DIAST-1], the IC50 in assay [1] and in assay [2] was 100 to 1000 nM in each case. For the same compound, the “Serum Shift (approximate)” value in assay [1] (setting [3]) was 4.
`O[C@H]1c2c(C(F)(F)F)nn([C@@H]3C[C@@H](F)[C@@H](F)[C@@H](F)C3)c2[C@@H](F)[C@H]1F` [Example 140, (4S,5S,6R)-5,6-difluoro-1-[(3R,5S)-3,4,5-trifluorocyclohexyl]-3-(trifluoromethyl)-5,6-dihydro-4H-cyclopenta[c]pyrazol-4-ol]: the “Serum Shift (approximate)” value in assay [1] is on record as 3. The values for the IC50 in assay [1] and in assay [2] were 100 to 1000 nM and below 100 nM, respectively.
Regarding `O[C@H]1c2c(C(F)(F)F)nn([C@H]3CC[C@H](F)[C@H](F)C3)c2[C@@H](F)[C@H]1F` (single isomer, unassigned) [141/142 DIAST-2], the IC50 in assay [1] and in assay [2] was 100 to 1000 nM throughout. Besides, the “Serum Shift (approximate)” value in assay [1] (setting [3]) was 3.
Consider `O[C@H]1c2c(C(F)(F)F)nn(C3CC[C@H](F)[C@H](F)C3)c2CC1(F)F` (single isomer, unassigned) [72/73 DIAST-2], for which the IC50 was 100 to 1000 nM in assay [1] and below 100 nM in assay [2]. The “Serum Shift (approximate)” value in assay [1] (setting [3]) came to 3.
The like results for `O[C@H]1c2c(C(F)(F)F)nn([C@H]3CCO[C@@H](C(F)(F)F)C3)c2[C@@H](F)[C@H]1F` (single isomer, unassigned) [150/151 DIAST-1] were, in that order, above 1000 nM, 100 to 1000 nM and 5.
With `O[C@H]1c2c(C(F)(F)F)nn([C@H]3C[C@@H](COC(F)F)C3)c2CC1(F)F` [Example 103, (4S)-1-[3-(difluoromethoxymethyl)cyclobutyl]-5,5-difluoro-3-(trifluoromethyl)-4,6-dihydrocyclopenta[c]pyrazol-4-ol], the IC50 in assay [1] and in assay [2] was above 1000 nM each time. In addition, the “Serum Shift (approximate)” value in assay [1] (setting [3]) is recorded as 7.
For `O[C@H]1c2c(C(F)(F)F)nn(C3CCC(F)(F)CC3)c2[C@@H](F)[C@H]1F` [Example 132, (4S,5S,6R)-1-(4,4-difluorocyclohexyl)-5,6-difluoro-3-(trifluoromethyl)-5,6-dihydro-4H-cyclopenta[c]pyrazol-4-ol], the IC50 in assay [1] was above 1000 nM; in assay [2] it was below 100 nM. In addition, the “Serum Shift (approximate)” value in assay [1] (setting [3]) is given as 8.
